# Earlier results as cited in patent publication US8653135B1, “Alternating sympathomimetic therapy for the treatment of respiratory aliments” (Sovereign Pharmaceuticals, LLC, priority 2007, dated 2014).
# Conditions: when given in adequate dosages
compound,measurement,value
"CNC[C@H](O)c1cccc(O)c1 [Phenylephrine, phenylephrine]",effect on heart rate,slows the heart rate
